In ChEMBL document CHEMBL4385670, “Potent HIV-1 protease inhibitors incorporating squaramide-derived P2 ligands: Design, synthesis, and biological evaluation” (Bioorg Med Chem Lett, 2019):

Key:
Protease = Protease (Human immunodeficiency virus 1, UniProt Q9YQ12); assay: Inhibition of HIV1 protease using Ac-Thr-Ile-Nle-Nle-Gln-Arg-NH2 substrate by continuous fluorometric assay
[1] = tested on: Human immunodeficiency virus 1; assay: Antiviral activity against HIV1 NL4-3 infected in human MT4 cells assessed as reduction in p24 Gag protein production incubated for 6 days and measured on day 7 by chemiluminescent enzyme immunoassay; format: functional, organism-based; details: Human immunodeficiency virus 1, NL4-3, MT4

Sequence of Protease (Q9YQ12 whole entry): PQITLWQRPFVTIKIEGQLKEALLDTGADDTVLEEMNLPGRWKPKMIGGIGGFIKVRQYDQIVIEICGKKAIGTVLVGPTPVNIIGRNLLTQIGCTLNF

| Compound | Ki (Protease) | IC50 [1] |
| --- | --- | --- |
| CCOc1c(N[C@@H](Cc2ccccc2)[C@H](O)CN(CC(C)C)S(=O)(=O)c2ccc(OC)cc2)c(=O)c1=O | 463 nM | > 1000 nM |
| COc1ccc(S(=O)(=O)N(CC(C)C)C[C@@H](O)[C@H](Cc2ccccc2)Nc2c(O[C@@H]3CCOC3)c(=O)c2=O)cc1 | 226 nM | > 1000 nM |
| COc1ccc(S(=O)(=O)N(CC(C)C)C[C@@H](O)[C@H](Cc2ccccc2)Nc2c(N(C)[C@@H]3CCOC3)c(=O)c2=O)cc1 | 0.51 nM | > 1000 nM |
| COc1ccc(S(=O)(=O)N(CC(C)C)C[C@@H](O)[C@H](Cc2ccccc2)Nc2c(O[C@H]3CCOC3)c(=O)c2=O)cc1 | 31.1 nM | > 1000 nM |
| COc1ccc(S(=O)(=O)N(CC(C)C)C[C@@H](O)[C@H](Cc2ccccc2)Nc2c(N(C)[C@H]3CO[C@H]4OCC[C@H]43)c(=O)c2=O)cc1 | 4.5 nM | > 1000 nM |
| COc1ccc(S(=O)(=O)N(CC(C)C)C[C@@H](O)[C@H](Cc2ccccc2)Nc2c(N[C@H]3CCOC3)c(=O)c2=O)cc1 | 6100 nM | > 1000 nM |
| COc1ccc(S(=O)(=O)N(CC(C)C)C[C@@H](O)[C@H](Cc2ccccc2)Nc2c(N[C@@H]3CO[C@@H]4OCC[C@@H]43)c(=O)c2=O)cc1 | 5.6 nM | > 1000 nM |
| COc1ccc(S(=O)(=O)N(CC(C)C)C[C@@H](O)[C@H](Cc2ccccc2)Nc2c(N[C@H]3CO[C@H]4OCC[C@H]43)c(=O)c2=O)cc1 | 54.8 nM | > 1000 nM |
| COc1ccc(S(=O)(=O)N(CC(C)C)C[C@@H](O)[C@H](Cc2ccccc2)Nc2c(N[C@@H]3CCOC3)c(=O)c2=O)cc1 | 200 nM | > 1000 nM |
| COCCOc1c(N[C@@H](Cc2ccccc2)[C@H](O)CN(CC(C)C)S(=O)(=O)c2ccc(OC)cc2)c(=O)c1=O | 1960 nM | > 1000 nM |
| COc1ccc(S(=O)(=O)N(CC(C)C)C[C@@H](O)[C@H](Cc2ccccc2)Nc2c(N(C)[C@H]3CCOC3)c(=O)c2=O)cc1 | 397 nM | > 1000 nM |
| COc1ccc(S(=O)(=O)N(CC(C)C)C[C@@H](O)[C@H](Cc2ccccc2)Nc2c(N(C)[C@@H]3CO[C@@H]4OCC[C@@H]43)c(=O)c2=O)cc1 | 201 nM | > 1000 nM |
